Blank lines part the entries; values can stand above or below the molecule they belong to.
How the values were obtained:
[1] = Antiplatelet activity in human washed platelets assessed as reduction in thrombin-induced platelet aggregation preincubated for 5 mins followed by thrombin induction measured after 5 mins by dual channel aggregometric analysis; format: functional, cell-based
[2] = Cytotoxicity against human SMMC7721 cells assessed as cell growth inhibition after 72 hrs in presence of 5% CO2 by MTS assay; format: functional; settings: SMMC-7721, 72 h
[3] = Cytotoxicity against human Bel7402 cells assessed as cell growth inhibition after 72 hrs in presence of 5% CO2 by MTS assay; format: functional; settings: Bel-7402, 72 h
[4] = Cytotoxicity against human QGY7703 cells assessed as cell growth inhibition after 72 hrs in presence of 5% CO2 by MTS assay; format: functional; settings: QGY-7703, 72 h
[5] = Cytotoxicity against human IMR32 cells assessed as reduction in cell viability after 72 hrs by MTT assay; format: functional, cell-based; settings: IMR-32, 72 h
[6] = Antiplatelet activity in human platelets assessed as reduction in thrombin-induced platelet aggregation by turbidimetric method; format: functional, cell-based
Rattus norvegicus [7] = species on record: Rattus norvegicus; assay: Antiinflammatory activity in rat pyresis model; format: functional
Rattus norvegicus [8] = assay: Antiinflammatory activity in rat paw edema model; format: functional
[9] = Antiinflammatory activity in human HL60 cells assessed as inhibition of LPS-induced IL-1beta production; format: functional, cell-based; settings: HL-60
[10] = molecular target: T1, Adrenergic receptor alpha-1 (Rattus norvegicus, UniProt P15823+P23944+P43140); assay: Displacement of [3H]prazosin from alpha1-adrenergic receptor in rat cerebral cortex membranes; format: cell membranes, Membrane
T1 sequence (P15823 whole entry): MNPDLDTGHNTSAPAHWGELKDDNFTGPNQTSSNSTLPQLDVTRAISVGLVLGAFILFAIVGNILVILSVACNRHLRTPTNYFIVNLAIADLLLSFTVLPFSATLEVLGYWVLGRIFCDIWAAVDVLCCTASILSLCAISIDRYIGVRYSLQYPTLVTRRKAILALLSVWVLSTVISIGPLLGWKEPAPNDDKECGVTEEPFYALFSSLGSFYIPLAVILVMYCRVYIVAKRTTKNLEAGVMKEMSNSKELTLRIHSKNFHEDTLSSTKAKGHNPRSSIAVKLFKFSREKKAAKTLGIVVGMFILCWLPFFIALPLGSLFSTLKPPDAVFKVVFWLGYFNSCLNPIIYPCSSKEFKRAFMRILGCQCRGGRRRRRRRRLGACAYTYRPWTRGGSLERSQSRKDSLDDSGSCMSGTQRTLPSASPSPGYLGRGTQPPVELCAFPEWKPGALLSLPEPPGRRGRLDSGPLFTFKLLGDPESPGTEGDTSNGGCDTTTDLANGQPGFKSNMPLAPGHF
T1 sequence (P23944 whole entry): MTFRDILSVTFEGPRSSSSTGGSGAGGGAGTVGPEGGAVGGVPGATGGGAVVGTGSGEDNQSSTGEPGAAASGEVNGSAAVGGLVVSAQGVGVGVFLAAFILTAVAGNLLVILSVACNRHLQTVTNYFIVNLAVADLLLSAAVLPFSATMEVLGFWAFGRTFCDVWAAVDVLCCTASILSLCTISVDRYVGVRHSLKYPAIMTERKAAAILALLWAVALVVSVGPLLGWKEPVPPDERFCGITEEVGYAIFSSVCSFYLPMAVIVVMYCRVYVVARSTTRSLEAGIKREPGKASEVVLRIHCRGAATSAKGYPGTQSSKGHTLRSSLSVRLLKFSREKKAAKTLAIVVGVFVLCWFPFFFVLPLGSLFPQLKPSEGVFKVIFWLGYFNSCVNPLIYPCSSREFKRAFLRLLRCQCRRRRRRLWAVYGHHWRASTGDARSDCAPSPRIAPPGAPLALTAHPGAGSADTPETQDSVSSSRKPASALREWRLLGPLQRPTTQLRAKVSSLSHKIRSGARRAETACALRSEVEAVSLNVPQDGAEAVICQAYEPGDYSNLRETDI
T1 sequence (P43140 whole entry): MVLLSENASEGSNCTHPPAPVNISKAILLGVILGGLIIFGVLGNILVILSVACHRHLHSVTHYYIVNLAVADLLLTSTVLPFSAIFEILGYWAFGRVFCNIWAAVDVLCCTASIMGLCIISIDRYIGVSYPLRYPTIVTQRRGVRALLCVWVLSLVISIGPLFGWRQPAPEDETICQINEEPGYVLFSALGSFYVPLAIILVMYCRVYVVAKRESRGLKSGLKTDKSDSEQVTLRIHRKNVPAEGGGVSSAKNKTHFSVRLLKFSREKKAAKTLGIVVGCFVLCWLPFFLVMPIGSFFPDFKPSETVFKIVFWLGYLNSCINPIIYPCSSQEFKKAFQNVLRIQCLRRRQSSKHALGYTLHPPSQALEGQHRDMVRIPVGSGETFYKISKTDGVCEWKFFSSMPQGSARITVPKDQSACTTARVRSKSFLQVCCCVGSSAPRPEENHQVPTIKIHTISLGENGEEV

[11] = molecular target: Adrenergic receptor alpha-1 (Rattus norvegicus) (UniProt P15823+P23944+P43140); assay: Potency index, ratio of compound affinity to prazosin affinity for alpha1-adrenergic receptor in rat cerebral cortex membranes; format: cell membranes; settings: Membrane
[12] = Agonist activity at PGI2 in human platelet-rich plasma assessed as inhibition of ADP-induced platelet aggregation

IC50 [1]: 45000 nM
Compound: COC(=O)C(=Cc1cc(=O)[nH]nc1-c1ccccc1)C(=O)OC

IC50 [1]: 25000 nM
Compound: COC(=O)/C(=C/c1cc(O)nnc1-c1ccccc1)C(C)=O

Compound: O=c1ccc(-c2ccc(N3CCOCC3)c(C(F)(F)F)c2)n[nH]1
GI50 [2]: 28.7 nM | GI50 [3]: 469 nM | GI50 [4]: 30.2 nM

Compound: Cc1n[nH]c(=O)c2c1c1cc(F)ccc1n2Cc1cn(C2CCCCC2)nn1
IC50 [5]: 40 nM

IC50 [1]: 20000 nM
Compound: CCOC(=O)C(=Cc1cc(=O)[nH]nc1-c1ccccc1)C(=O)OCC

IC50 [6]: 3440 nM
Compound: O=C(/C=C/c1cc(=O)[nH]nc1-c1ccccc1)c1ccc(Cl)cc1Cl

Compound: C[C@H]1C[C@@H]1Cn1ncc(-c2ccc(S(C)(=O)=O)cc2)c(-c2ccc(F)cc2)c1=O
ED50 (Rattus norvegicus [7]): 1.1 mg/kg

IC50 [1]: 25000 nM
Compound: O=C(/C=C/c1cc(=O)[nH]nc1-c1ccccc1)c1ccccc1

Compound: CC(C)Oc1c(-c2ccc(S(C)(=O)=O)cc2)cnn(Cc2ccccc2)c1=O
ED50 (Rattus norvegicus [8]): 0.3 mg/kg

IC50 [9]: 100 nM
Compound: COc1ccc(-c2cc(=O)n(CC/C=C/c3ccccc3)nc2-c2ccc(OC)cc2)cc1

Ki [10]: 0.052 nM | Ratio [11]: 5
Compound: O=C(c1ccco1)N1CCN(c2cnn(CCCCCCCN3CCN(c4ccccc4Oc4ccccc4)CC3)c(=O)c2Cl)CC1

IC50 [1]: 15000 nM
Compound: CC(C)(C)c1ccc(CSc2c(-c3ccccc3)nn(C(C)(C)C)c(=O)c2F)cc1

IC50 [12]: 81 nM
Compound: O=C(O)COc1cccc2c1CC[C@H](Cn1nc(C(c3ccccc3)c3ccccc3)ccc1=O)C2
